In one test the test system is Raw 264.7 Cells. Briefly: JE on TNF-α and IL-6 production by Raw 264.7 cells upon TLR agonists. The test is classed as cell-based, mouse. Particulars: for decrease in TNF-α production: vs untreated macrophages. As for the experimental part:
FIG. 13. The Effect of JE on TNF-α Production by Raw 264.7 Cells Upon Stimulation with TLR Agonists. Macrophages were incubated overnight with JE at a concentration of 50 μM at t 37° C., 5% CO2. The following day, the macrophages were stimulated with 10 ng/ml of LPS, 1 μg/ml of FLG-St, 3 μg/ml of PAM-3csk, 1 μM of ODN and 20 μg/ml of Poly: IC for 3 hours. Supernatants were collected, and TNF-α was measured by ELISA. The data are presented as mean±SEM (n=6). *p<0.05; **p<0.01; ***p<0.001. One of three experiments is shown.
FIG. 14. The Effect of JE on TNF-α Production by Raw 264.7 Cells Upon Stimulation with TLR Agonists. Macrophages were incubated overnight with JE at a concentration of 50 μM at 37° C., 5% CO2. The following day, the macrophages were stimulated with 1 μg/ml of FSL-1 2 μg/ml of Imiquimod for 3 hours. Supernatants were collected and TNF-α was measured by ELISA. Data are presented as mean±SEM (n=6). *p<0.05; **p<0.01; ***p <0.001. One of three experiments is shown.
FIG. 15. The Effect of JE on IL-6 Production by Raw 264.7 Cells Upon Stimulation with TLR Agonists. Macrophages were incubated overnight with JE at a concentration of 50 μM at t 37° C., 5% CO2. The following day, the macrophages were stimulated with TLR agonists at the same concentrations that I used for TNF-α induction. Supernatants were collected, and IL-6 was measured by ELISA. The data are presented as mean±SEM (n=6). *p<0.05; **p<0.01; ***p<0.001. One of three experiments is shown.
Murine macrophages, both RAW 264.7 macrophages and bone marrow-derived macrophages (BMDMs), were seeded and then pretreated overnight with the metabolite JE. The following day, the macrophages were stimulated with one of TLR agonists, including LPS, FLA-ST, ODN, Pam3SCK4, Poly: IC LMW, FSL, and Imiquimod for 3 hours, then the production of TNF-α, and IL-6 in the culture supernatants was measured by ELISA.

Another test has as its system mouse peritonitis. As to the kind of experiment: LPS-induced mouse peritonitis model, peritoneal neutrophils by flow cytometry (Ly6G). Particulars: JE i.p. two consecutive days, LPS i.p. day 3, 4 hours, vs PBS. The class given is in vivo. As for the experimental part: FIG. 4A-4B. Bacterial Supernatant <10 kD fraction inhibits mouse peritonitis in vivo. 6-week old B6 mice were i.p. injected with <10 kD fraction from LF, TS medium, or PBS (500 μL/dose) at day 0 and day 1. At day 2, mice were given LPS (10 μg/mouse) or PBS via i.p. […] (FIG. 4A) The recruited neutrophils were quantified by flow cytometry using the neutrophil markers Ly6G and data were analyzed by FlowJo Software. (FIG. 4B) Neutrophil numbers are shown as mean±s.d., **p<0.01, n=3 per group.
FIG. 9A-9C. FACS representation of mouse peritonitis model. Histograms were made from FACS gating of cells collected from the peritoneal cavity. (FIG. 9A) Mice were pre-treated for two consecutive days with compound JE and then received LPS. (FIG. 9B) Mice received only LPS. (FIG. 9C) Another group received PBS injected for two consecutive days to serve as a negative control. […]
Commensal bacteria are non-invading bacteria that habit the host gastrointestinal tract without causing harm. […] We then measured the ability of the <10 kDa fraction to cross intestinal epithelium with the tight junctions without disrupting the integrity. […] To determine if the <10 kD fraction suppresses LPS-induced inflammatory responses in vivo, we intraperitoneally injected the <10 kDa fraction into C57/Bl6 mice followed by LPS and then analyzed peritoneal numbers of neutrophils by flow cytometry. […]
In general terms: In flow cytometry, cells or beads pass a laser one at a time.

Setting [1] is: JE 50 μM overnight, TLR agonists 3 hours, vs media with TLR agonists.

In the case of `CC(=O)O[C@@H]1CC[C@H]2[C@H]3CC[C@H]4CC(F)(F)CC[C@]4(C)[C@H]3CC[C@]12C` [JE, 3,3-Difluoro-5-alpha-androstan-17-beta-yl acetate], the “decrease in TNF-α production” value in the test with Raw 264.7 Cells (JE 50 μM overnight, TLR 1/2 agonist PAM-3CSK) was found to be 4 fold; with Raw 264.7 Cells (JE 50 μM overnight, TLR 5 agonist FLG-ST), 4 fold. The TNF-α secretion result in the test with Raw 264.7 Cells (JE 50 μM overnight, TLR2/6 agonist FSL-1) is “completely abolished”; with Raw 264.7 Cells (JE 50 μM overnight, TLR-3 agonist Poly: IC LMW) it was “completely abolished”. Besides, the TNF-α production result in the test on Raw 264.7 Cells (JE 50 μM overnight, TLR4 agonist LPS) is recorded as “reduced”; in the test on Raw 264.7 Cells (JE 50 μM overnight, TLR7 agonist Imiquimod), “reduced”. Also, the “production of IL-6” value in the test on Raw 264.7 Cells (setting [1]) is on record as “significantly reduced”. Besides, the “production of TNF-α” value with Raw 264.7 Cells (setting [1]) is listed as “significantly reduced”. In the test on Raw 264.7 Cells (JE pretreatment, LPS, relative to untreated macrophages), the “decrease in IL-6 secreted” value came to 4 fold. The peritoneal neutrophil recruitment result in the test with mouse peritonitis is reported as “reduced”.

(Values after patent US20250000874A1, “BACTERIAL METABOLITES AND THEIR USE IN REDUCING INFLAMMATION” (LOYOLA UNIVERSITY OF CHICAGO, priority 2023, published 2025).)
